Laboratory results taken from patent publication US20230015478A1, “GLP-1 RECEPTOR AGONISTS HAVING IMPROVED PHARMACOLOGICAL AND DRUG DELIVERY PROPERTIES” (priority 2021, published 2023).
Read-outs that look alike come from different tables or passages of the source. One block for each molecule: values may come before it. Numbered stars: 1 amine (or outer) side, 2 acyl side, 3 side chain; on linkers, the order of the positions; unused ones are H or OH. Square brackets hold non-standard residues; d marks the D form. Side chains are listed from the residue outwards. Peptide text beside a SMILES is read from it. * marks the point of attachment. Dap(Nα-HOOC(CH2)16CO)OH = O=C(O)CCCCCCCCCCCCCCCCC(=O)N[C@@H](CN*)C(=O)O; Phe(2-NO2) = N[C@@H](Cc1ccccc1[N+](=O)[O-])C(=O)O; Phe(2,6-F2) = N[C@@H](Cc1c(F)cccc1F)C(=O)O; Bip = N[C@@H](Cc1ccc(-c2ccccc2)cc1)C(=O)O; C18 diacid = O=C(O)CCCCCCCCCCCCCCCCC(=O)*; Hydrocinnamoyl(4-I) = O=C(CCc1ccc(I)cc1)*; X1 = C[C@@](CCc1ccccc1)(N[*:1])C(=O)[*:2]; αMePhe(2-F) = C[C@](N)(Cc1ccccc1F)C(=O)O; γGlu = O=C(O)[C@H](CCC(=O)[*:2])N[*:1]; Phe(2-F) = N[C@@H](Cc1ccccc1F)C(=O)O; Phe(2-Me) = Cc1ccccc1C[C@H](N)C(=O)O; hPhe = N[C@@H](CCc1ccccc1)C(=O)O; αMeP = C[C@@]1(C(=O)O)CCCN1; AEEA = NCCOCCOCC(=O)O; Aib = CC(C)(N)C(=O)O

Biological target: T1, hGLP1 receptor (Homo sapiens, UniProt P43220)
T1 construct: expressed in transfected cells; host or cells: HEK (human embryonic kidney) cells co-expressing hGLP1 receptor and CRE-Luciferase
T1 sequence (P43220 24-463): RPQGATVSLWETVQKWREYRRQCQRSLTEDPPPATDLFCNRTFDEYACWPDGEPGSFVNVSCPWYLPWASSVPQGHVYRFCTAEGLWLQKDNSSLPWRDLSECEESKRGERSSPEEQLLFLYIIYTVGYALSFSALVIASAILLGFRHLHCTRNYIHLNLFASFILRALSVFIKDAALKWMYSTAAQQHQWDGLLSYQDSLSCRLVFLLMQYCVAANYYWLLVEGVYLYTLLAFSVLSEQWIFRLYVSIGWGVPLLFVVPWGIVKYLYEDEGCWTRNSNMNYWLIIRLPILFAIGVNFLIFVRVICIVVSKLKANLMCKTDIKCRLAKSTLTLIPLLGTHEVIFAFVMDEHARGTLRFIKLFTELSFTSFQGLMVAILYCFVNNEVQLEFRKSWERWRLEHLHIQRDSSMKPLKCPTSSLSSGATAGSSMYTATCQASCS
Experiment: cAMP HTRF agonist assay in HEK cells co-expressing hGLP1 receptor and CRE-Luciferase
Format: cell-based
In short: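 HEK cells co-expressing hGLP1R and CRE-luciferase, 1000 cells/well in DPBS with 500 μM IBMX, exposed to peptides or exendin-4 reference for 30 min; 11-point 1:3 series from top 1.0 μM. cAMP measured by HTRF (665/615 nm) after 1 h at room temperature; EC50 from 4-parameter logistic fit.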

[1] = cAMP EC50, nM (0.1% albumin), Table 1, 0.1% albumin
[2] = cAMP EC50, nM (0.1% albumin), Table 6, 0.1% albumin
[3] = cAMP EC50, nM (0.1% albumin), Table 2, 0.1% albumin

SMILES: C[C@@H](O)[C@H](NC(=O)CNC(=O)[C@H](CCC(=O)O)NC(=O)C(C)(C)NC(=O)[C@@H](N)Cc1c[nH]cn1)C(=O)N[C@@H](Cc1ccccc1[N+](=O)[O-])C(=O)N[C@H](C(=O)N[C@@H](CO)C(=O)N[C@@H](CC(=O)O)C(=O)N[C@@H](Cc1ccc(-c2ccccc2)cc1)C(=O)N[C@@H](Cc1ccc(-c2ccccc2)cc1)C(N)=O)[C@@H](C)O [3-5, H2N-His-Aib-Glu-Gly-Thr-Phe(2-NO2)-Thr-Ser-Asp-Bip-Bip-C(O)NH2] (H-H[Aib]EGT[Phe(2-NO2)]TSD[Bip][Bip]-NH2)
EC50 [1]: 6.67 nM

SMILES: C[C@@H](O)[C@H](NC(=O)CNC(=O)[C@H](CCC(=O)O)NC(=O)[C@]1(C)CCCN1C(=O)[C@@H](N)Cc1c[nH]cn1)C(=O)N[C@@](C)(Cc1ccccc1F)C(=O)N[C@H](C(=O)N[C@@H](CO)C(=O)N[C@@H](CC(=O)O)C(=O)N[C@@H](Cc1ccc(-c2ccccc2)cc1)C(=O)N[C@@H](Cc1ccc(-c2ccccc2)cc1)C(N)=O)[C@@H](C)O [3-40, H2N-His-α-MePro-Glu-Gly-Thr-α-MePhe(2-F)-Thr-Ser-Asp-Bip-Bip-C(O)NH2] (H-H[αMeP]EGT[αMePhe(2-F)]TSD[Bip][Bip]-NH2)
EC50 (cAMP EC50, nM (0.1% albumin), Table 4, 0.1% albumin): 0.003 nM
potency compared with the parent peptide analog (1-2) (replacement of Aib2, in words): significantly greater potency

SMILES: C[C@@H](O)[C@H](NC(=O)CNC(=O)[C@H](CCC(=O)O)NC(=O)C(C)(C)NC(=O)[C@@H](N)Cc1c[nH]cn1)C(=O)N[C@@H](Cc1c(F)cccc1F)C(=O)N[C@H](C(=O)N[C@@H](CO)C(=O)N[C@@H](CC(=O)O)C(=O)N[C@@H](Cc1ccc(-c2ccccc2)cc1)C(=O)N[C@@H](Cc1ccc(-c2ccccc2)cc1)C(N)=O)[C@@H](C)O [3-8, H2N-His-Aib-Glu-Gly-Thr-Phe(2,6F)-Thr-Ser-Asp-Bip-Bip-C(O)NH2] (H-H[Aib]EGT[Phe(2,6-F2)]TSD[Bip][Bip]-NH2)
EC50 (Table 1, cells marked (0% albumin), read-out: cAMP EC50, nM (0% albumin)): 0.16 nM

SMILES: C[C@@H](O)[C@H](NC(=O)CNC(=O)[C@H](CCC(=O)O)NC(=O)C(C)(C)NC(=O)[C@@H](N)Cc1c[nH]cn1)C(=O)N[C@@](C)(Cc1ccccc1F)C(=O)N[C@H](C(=O)N[C@@H](CO)C(=O)N[C@@H](CC(=O)O)C(=O)N[C@@H](Cc1ccc(-c2ccccc2)cc1)C(=O)N[C@@H](Cc1ccc(-c2ccccc2)cc1)C(=O)NCC(=O)NCC(=O)NCC(=O)N[C@@H](CCCCN)C(N)=O)[C@@H](C)O [4-58, H2N-His-Aib-Glu-Gly-Thr-α-MePhe(2-F)-Thr-Ser-Asp-Bip-Bip-C(O)NH-RY14] (H-H[Aib]EGT[αMePhe(2-F)]TSD[Bip][Bip]GGGK-NH2)
EC50 [2]: 7.7 nM

SMILES: C[C@@H](O)[C@H](NC(=O)CNC(=O)[C@H](CCC(=O)O)NC(=O)[C@]1(C)CCCN1C(=O)[C@@H](N)Cc1c[nH]cn1)C(=O)N[C@@](C)(Cc1ccccc1F)C(=O)N[C@H](C(=O)N[C@@H](CO)C(=O)N[C@@H](CC(=O)O)C(=O)N[C@@H](Cc1ccc(-c2ccccc2)cc1)C(=O)N[C@@H](Cc1ccc(-c2ccccc2)cc1)C(=O)NCC(=O)NCC(=O)NCC(=O)N[C@@H](CCCCNC(=O)CCc1ccc(I)cc1)C(N)=O)[C@@H](C)O [4-67, H2N-His-α-MePro-Glu-Gly-Thr-α-MePhe(2-F)-Thr-Ser-Asp-Bip-Bip-C(O)NH-RY23] (H-H[αMeP]EGT[αMePhe(2-F)]TSD[Bip][Bip]GGGK(Hydrocinnamoyl(4-I))-NH2)
EC50 [2]: 2.4 nM

SMILES: C[C@@H](O)[C@H](NC(=O)CNC(=O)[C@H](CCC(=O)O)NC(=O)C(C)(C)NC(=O)[C@@H](N)Cc1c[nH]cn1)C(=O)N[C@@](C)(Cc1ccccc1F)C(=O)N[C@H](C(=O)N[C@@H](CO)C(=O)N[C@@H](CC(=O)O)C(=O)N[C@@H](Cc1ccc(-c2ccccc2)cc1)C(=O)N[C@@H](Cc1ccc(-c2ccccc2)cc1)C(=O)N[C@@H](CCCCNC(=O)COCCOCCNC(=O)CC[C@H](NC(=O)CCCCCCCCCCCCCCCCC(=O)O)C(=O)O)C(N)=O)[C@@H](C)O [4-48, H2N-His-Aib-Glu-Gly-Thr-α-MePhe(2-F)-Thr-Ser-Asp-Bip-Bip-C(0)NH-RY10] (H-H[Aib]EGT[αMePhe(2-F)]TSD[Bip][Bip]K([AEEA-γGlu-C18 diacid])-NH2)
EC50 [2]: 9.7 nM

Other lines, results leading:

EC50 [1]: 32.6 nM
SMILES: C[C@@H](O)[C@H](NC(=O)CNC(=O)[C@H](CCC(=O)O)NC(=O)C(C)(C)NC(=O)[C@@H](N)Cc1c[nH]cn1)C(=O)N[C@@H](CCc1ccccc1)C(=O)N[C@H](C(=O)N[C@@H](CO)C(=O)N[C@@H](CC(=O)O)C(=O)N[C@@H](Cc1ccc(-c2ccccc2)cc1)C(=O)N[C@@H](Cc1ccc(-c2ccccc2)cc1)C(N)=O)[C@@H](C)O [3-11, H2N-His-Aib-Glu-Gly-Thr-hPhe-Thr-Ser-Asp-Bip-Bip-C(O)NH2] (H-H[Aib]EGT[hPhe]TSD[Bip][Bip]-NH2)

EC50 (Table 5, 0% albumin, read-out: cAMP EC50, nM (0% albumin)): 5.5 nM
SMILES: C[C@@H](O)[C@H](NC(=O)CNC(=O)[C@H](CCC(=O)O)NC(=O)C(C)(C)NC(=O)[C@@H](N)Cc1c[nH]cn1)C(=O)N[C@@](C)(Cc1ccccc1F)C(=O)N[C@H](C(=O)N[C@@H](CO)C(=O)N[C@@H](CC(=O)O)C(=O)N[C@@H](Cc1ccc(-c2ccccc2)cc1)C(=O)N[C@@](C)(CCc1ccccc1)C(N)=O)[C@@H](C)O [4-2, H2N-His-Aib-Glu-Gly-Thr-α-MePhe(2-F)-Thr-Ser-Asp-Bip-α-MeHph-C(O)NH2] (H-H[Aib]EGT[αMePhe(2-F)]TSD[Bip][X1]-NH2)

EC50 (cAMP EC50, nM (0.1% albumin), Table 3, 0.1% albumin): 150 nM
SMILES: C[C@@H](O)[C@H](NC(=O)CNC(=O)[C@H](CCC(=O)O)NC(=O)C(C)(C)NC(=O)[C@@H](N)Cc1c[nH]cn1)C(=O)N[C@@](C)(Cc1ccccc1F)C(=O)N[C@H](C(=O)NC(C)(C)C(=O)N[C@@H](CC(=O)O)C(=O)N[C@@H](Cc1ccc(-c2ccccc2)cc1)C(=O)N[C@@H](Cc1ccc(-c2ccccc2)cc1)C(N)=O)[C@@H](C)O [3-36, H2N-His-Aib-Glu-Gly-Thr-αMePhe(2-F)-Thr-Aib-Asp-Bip-Bip-C(O)NH2] (H-H[Aib]EGT[αMePhe(2-F)]T[Aib]D[Bip][Bip]-NH2)

EC50 [3]: 20.3 nM
SMILES: C[C@H](NC(=O)C(C)(C)NC(=O)[C@@H](N)Cc1c[nH]cn1)C(=O)NCC(=O)N[C@H](C(=O)N[C@@H](Cc1ccccc1F)C(=O)N[C@H](C(=O)N[C@@H](CO)C(=O)N[C@@H](CC(=O)O)C(=O)N[C@@H](Cc1ccc(-c2ccccc2)cc1)C(=O)N[C@@H](Cc1ccc(-c2ccccc2)cc1)C(N)=O)[C@@H](C)O)[C@@H](C)O [3-22, H2N-His-Aib-Ala-Gly-Thr-Phe(2-F)-Thr-Ser-Asp-Bip-Bip-C(O)NH2] (H-H[Aib]AGT[Phe(2-F)]TSD[Bip][Bip]-NH2)

EC50 [3]: 18.9 nM
SMILES: C[C@H](NC(=O)[C@@H](NC(=O)[C@H](Cc1ccccc1F)NC(=O)[C@@H](NC(=O)CNC(=O)[C@H](CCC(=O)O)NC(=O)C(C)(C)NC(=O)[C@@H](N)Cc1c[nH]cn1)[C@@H](C)O)[C@@H](C)O)C(=O)N[C@@H](CC(=O)O)C(=O)N[C@@H](Cc1ccc(-c2ccccc2)cc1)C(=O)N[C@@H](Cc1ccc(-c2ccccc2)cc1)C(N)=O [3-26, H2N-His-Aib-Glu-Gly-Thr-Phe(2-F)-Thr-Ala-Asp-Bip-Bip-C(O)NH2] (H-H[Aib]EGT[Phe(2-F)]TAD[Bip][Bip]-NH2)

EC50 [1]: 9.55 nM
SMILES: Cc1ccccc1C[C@H](NC(=O)[C@@H](NC(=O)CNC(=O)[C@H](CCC(=O)O)NC(=O)C(C)(C)NC(=O)[C@@H](N)Cc1c[nH]cn1)[C@@H](C)O)C(=O)N[C@H](C(=O)N[C@@H](CO)C(=O)N[C@@H](CC(=O)O)C(=O)N[C@@H](Cc1ccc(-c2ccccc2)cc1)C(=O)N[C@@H](Cc1ccc(-c2ccccc2)cc1)C(N)=O)[C@@H](C)O [3-4, H2N-His-Aib-Glu-Gly-Thr-Phe(2-CH3)-Thr-Ser-Asp-Bip-Bip-C(O)NH2] (H-H[Aib]EGT[Phe(2-Me)]TSD[Bip][Bip]-NH2)

EC50 [2]: 2.2 nM
SMILES: C[C@@H](O)[C@H](NC(=O)CNC(=O)[C@H](CCC(=O)O)NC(=O)[C@]1(C)CCCN1C(=O)[C@@H](N)Cc1c[nH]cn1)C(=O)N[C@@](C)(Cc1ccccc1F)C(=O)N[C@H](C(=O)N[C@@H](CO)C(=O)N[C@@H](CC(=O)O)C(=O)N[C@@H](Cc1ccc(-c2ccccc2)cc1)C(=O)N[C@@H](Cc1ccc(-c2ccccc2)cc1)C(=O)NCCOCCOCC(=O)NCCOCCOCC(=O)NC[C@H](NC(=O)CCCCCCCCCCCCCCCCC(=O)O)C(=O)O)[C@@H](C)O [4-60, H2N-His-α-MePro-Glu-Gly-Thr-α-MePhe(2-F)-Thr-Ser-Asp-Bip-Bip-C(O)NH-RY16] (H-H[αMeP]EGT[αMePhe(2-F)]TSD[Bip][Bip][AEEA][AEEA]-{Dap(Nα-HOOC(CH2)16CO)OH})

EC50 [2]: 67.2 nM
SMILES: C[C@@H](O)[C@H](NC(=O)CNC(=O)[C@H](CCC(=O)O)NC(=O)C(C)(C)NC(=O)[C@@H](N)Cc1c[nH]cn1)C(=O)N[C@@](C)(Cc1ccccc1F)C(=O)N[C@H](C(=O)N[C@@H](CO)C(=O)N[C@@H](CC(=O)O)C(=O)N[C@@H](Cc1ccc(-c2ccccc2)cc1)C(=O)N[C@@H](CCc1ccccc1)C(=O)NCCOCCOCC(=O)NCCOCCOCC(N)=O)[C@@H](C)O [4-35, H2N-His-Aib-Glu-Gly-Thr-α-MePhe(2-F)-Thr-Ser-Asp-Bip-Hph-C(O)NH-RY1] (H-H[Aib]EGT[αMePhe(2-F)]TSD[Bip][hPhe][AEEA][AEEA]-NH2)

EC50 [3]: 79.1 nM
SMILES: C[C@H](NC(=O)[C@H](Cc1ccccc1F)NC(=O)[C@@H](NC(=O)CNC(=O)[C@H](CCC(=O)O)NC(=O)C(C)(C)NC(=O)[C@@H](N)Cc1c[nH]cn1)[C@@H](C)O)C(=O)N[C@@H](CO)C(=O)N[C@@H](CC(=O)O)C(=O)N[C@@H](Cc1ccc(-c2ccccc2)cc1)C(=O)N[C@@H](Cc1ccc(-c2ccccc2)cc1)C(N)=O [3-25, H2N-His-Aib-Glu-Gly-Thr-Phe(2-F)-Ala-Ser-Asp-Bip-Bip-C(O)NH2] (H-H[Aib]EGT[Phe(2-F)]ASD[Bip][Bip]-NH2)
